Test results: ChEMBL document CHEMBL4425117 (Bioorg Med Chem Lett, 2016)
Each block holds one molecule with its values, some of them ahead of it.

Assays:
[1] = physchem
Description: Dissociation constant, pKa of the compound

[2] = target: T1, Endothelin-1 receptor (Homo sapiens, UniProt P25101); assay: Antagonist activity at human ETA receptor expressed in CHO cells in presence of ET1; format: cell-based
T1 sequence (P25101 whole entry): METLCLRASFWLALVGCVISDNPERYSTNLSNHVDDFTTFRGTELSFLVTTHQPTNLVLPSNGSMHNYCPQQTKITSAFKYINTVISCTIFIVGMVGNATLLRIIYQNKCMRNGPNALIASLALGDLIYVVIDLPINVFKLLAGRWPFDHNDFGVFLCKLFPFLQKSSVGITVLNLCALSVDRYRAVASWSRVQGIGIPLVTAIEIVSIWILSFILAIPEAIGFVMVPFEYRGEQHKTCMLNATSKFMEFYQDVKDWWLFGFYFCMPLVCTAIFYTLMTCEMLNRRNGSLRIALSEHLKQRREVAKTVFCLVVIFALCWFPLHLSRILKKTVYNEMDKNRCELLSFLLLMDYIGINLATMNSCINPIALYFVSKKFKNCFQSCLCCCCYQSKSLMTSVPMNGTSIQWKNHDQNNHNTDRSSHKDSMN

[3] = target: T2, Endothelin receptor type B (Rattus norvegicus, UniProt P21451); assay: Displacement of [125I]-ET1 from ETB receptor in rat cerebellum after 3 hrs by scintillation counting method; format: tissue-based
T2 sequence (P21451 whole entry): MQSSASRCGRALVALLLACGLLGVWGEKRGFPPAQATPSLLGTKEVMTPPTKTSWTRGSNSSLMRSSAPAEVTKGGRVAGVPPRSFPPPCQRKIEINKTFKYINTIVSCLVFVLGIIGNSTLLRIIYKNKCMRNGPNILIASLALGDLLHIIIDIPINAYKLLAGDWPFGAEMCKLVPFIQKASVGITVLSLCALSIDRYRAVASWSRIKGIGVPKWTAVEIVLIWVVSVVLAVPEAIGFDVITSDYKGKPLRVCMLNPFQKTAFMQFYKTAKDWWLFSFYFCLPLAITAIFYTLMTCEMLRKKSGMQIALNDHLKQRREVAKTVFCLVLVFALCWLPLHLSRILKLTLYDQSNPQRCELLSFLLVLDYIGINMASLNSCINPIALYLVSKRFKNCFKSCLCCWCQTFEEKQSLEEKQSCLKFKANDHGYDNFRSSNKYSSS

[4] = target: T1, Endothelin-1 receptor; assay: Antagonist activity at ETA receptor (unknown origin)
[5] = target: T3, Endothelin receptor type B (Homo sapiens, UniProt P24530); assay: Antagonist activity at ETB receptor (unknown origin)
T3 sequence (P24530 whole entry): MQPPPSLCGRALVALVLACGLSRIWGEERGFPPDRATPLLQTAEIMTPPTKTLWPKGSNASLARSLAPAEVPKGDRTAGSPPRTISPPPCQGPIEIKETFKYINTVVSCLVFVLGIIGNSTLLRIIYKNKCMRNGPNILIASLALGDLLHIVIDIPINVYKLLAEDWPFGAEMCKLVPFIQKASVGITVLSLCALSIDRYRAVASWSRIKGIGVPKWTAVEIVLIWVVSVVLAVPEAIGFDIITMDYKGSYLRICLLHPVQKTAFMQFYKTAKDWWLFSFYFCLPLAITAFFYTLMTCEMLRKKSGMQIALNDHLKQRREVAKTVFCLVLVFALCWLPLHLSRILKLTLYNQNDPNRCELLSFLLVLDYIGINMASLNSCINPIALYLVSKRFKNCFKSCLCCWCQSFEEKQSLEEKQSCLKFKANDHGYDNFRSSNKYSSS

[6] = target: T1, Endothelin-1 receptor; assay: Displacement of 125I-ET1 from human placenta cell membrane ETA receptor expressed in Baculovirus-infected insect cells
[7] = Oral bioavailability in rat at 15 mg/kg; format: ADME, organism-based; conditions: in vivo
[8] = Oral bioavailability in dog at 15 mg/kg; format: ADME, organism-based, Canis lupus familiaris; conditions: in vivo
[9] = target: T1, Endothelin-1 receptor; assay: Displacement of 125I-ET1 from human smooth muscle ETA receptor expressed in fall armyworm sf9 cell membranes
[10] = target: T2, Endothelin receptor type B; assay: Displacement of 125I-ET1 from rat aortic ring ETB receptor
[11] = target: T3, Endothelin receptor type B; assay: Antagonist activity at ETB receptor (unknown origin) in presence of ET1
[12] = target: T1, Endothelin-1 receptor; assay: Antagonist activity at ETA receptor (unknown origin) in presence of ET1
[13] = target: T3, Endothelin receptor type B; assay: Displacement of radioligand from ETB receptor in human placenta cell membranes
[14] = target: T1, Endothelin-1 receptor; assay: Displacement of 125I-ET1 from ETA receptor (unknown origin) expressed in CHO cells; format: cell-based
[15] = Oral bioavailability in dog; format: ADME, organism-based, Canis lupus familiaris; conditions: in vivo
[16] = target: T1, Endothelin-1 receptor; assay: Displacement of [125I]-ET-1 from human ETA receptor expressed in CHO cell membranes after 2 hrs by scintillation counting

SMILES: CCCNS(=O)(=O)Nc1ncnc(OCCOc2ncc(Br)cn2)c1-c1ccc(Br)cc1
- pKa [1]: 6.2
- IC50 [2]: 0.0034 µM

SMILES: Cc1noc(NS(=O)(=O)c2ccccc2-c2ccc(-c3ncco3)cc2)c1C
- Ki [3]: 1.9 µM

SMILES: Cc1cc2c(cc1CC(=O)c1sccc1S(=O)(=O)Nc1onc(C)c1Cl)OCO2 [SITAXENTAN]
- bioavailability [7]: 60 to 100%
- bioavailability [8]: 60 to 100%

SMILES: COc1ccccc1Oc1c(NS(=O)(=O)c2ccc(C)cn2)nc(-c2ccncc2)nc1OC [AVOSENTAN]
- IC50 [11]: 1.2 µM
- IC50 [12]: 0.0031 µM
- IC50 [13]: 0.6 µM
- IC50 [14]: 0.0014 µM

SMILES: CCc1cc(C2=C(C(=O)O)N(c3ccccc3C(F)(F)F)S(=O)(=O)c3ccccc32)cc2c1OCO2 [FANDOSENTAN]
- bioavailability [15]: 100%
- IC50 [16]: 0.0005 µM

Continued, values first:

- IC50 [4]: 0.026 µM
- IC50 [5]: 0.914 µM
- IC50 [6]: 0.05 µM
SMILES: COc1ccccc1Oc1c(NS(=O)(=O)c2ccc(C(C)C)cc2)nc(C(F)(F)F)nc1OCCO

- IC50 [9]: 0.22 µM
- IC50 [10]: 1 µM
SMILES: COc1cccc(Oc2c(NS(=O)(=O)c3ccc(C(C)(C)C)cc3)ncnc2OCCO)c1
